Measured values: patent US7378446B2, “Compound having anti-HCV activity and process for producing the same” (Chugai Seiyaku Kabushiki Kaisha, priority 2003, dated 2008)

Legend:
in vitro = assay type: cell-based; conditions: human; replicon cells, 3 days culture with compound, Cell Counting Kit 8, absorbance 450 nm; read-out: Cytotoxicity CC50
Method: (§1) A construct was prepared in which a luciferase gene derived from firefly was introduced as a reporter gene in HCV-RNA to assay the number of copies of HCV-RNA. The luciferase gene was introduced in the form of fusing with neomycin-resistance gene directly below the IRES (Internal Ribosome Entry Site) of the HCV gene in accordance with the method of Krieger, et al. (J. Virol. 75:4614). After synthesizing this RNA in vitro, it was introduced into Huh7 cell by electroporation and isolated as G418-resistant clone. Firefly luciferase HCV replicon cells (3-1) were suspended in Dulbecco's MEM (Gibco cat. no. 10569-010) containing 5% fetal bovine serum (Hyclone cat. no. SH30071.03), inoculated into the wells of a 96-well plate at 5000 cells/well and then cultured overnight at 37° C. and 5% CO2. Approximately 20 hours later, the diluted test compound was added at 10 μl per well followed by culturing for another 3 days. Two series of assay plates were prepared, and the assay was carried out using a white plate for one series and a clear plate for the other series. Following completion of culturing, the white plate was used for the Steady-Glo Luciferase Assay System (Promega cat. no. E2520). Namely, after adding 100 μl of reagent per well, mixing by a pipette 3 to 4 times and then allowing to stand for 5 minutes, luminescence was measured with the 1450 MicroBeta TRILUX (Wallac). Values obtained in the absence of cell addition were used as background values and subtracted from all values to calculate the IC50 (50% inhibitory concentration) of the drug based on a value of 0% inhibition for the value in the absence of addition of test compound.
The Cell Counting Kit 8 (Dojindo cat. no. CK04) was used to determine the cytotoxicity. Namely, 10 μl of Cell Counting Kit 8 were added to a clear plate and incubated for 30 to 60 minutes at 37° C. Absorbance at a wavelength of 450 nm and a control wavelength of 630 nm was measured with a 96-well plate reader. Values in the absence of cell addition were used as background values and subtracted from all values to calculate the CC50 (50% cell inhibitory concentration) of the drug based on a value of 0% inhibition for the value in the absence of addition of drug.

[1] = test system: Firefly luciferase HCV replicon cells (3-1); assay: Replicon assay (firefly luciferase HCV replicon); assay type: cell-based; conditions: Hepatitis C virus, 72 h; Huh7-derived luciferase HCV replicon cells, 3 days culture with compound, Steady-Glo luminescence
Method: as §1

Row | Structure (SMILES) | CC50 (in vitro) | IC50 [1]
1 | CCCCCCCC(=O)CCCCCC/C=C/[C@H](C(=O)N[C@@H](Cc1ccc(-c2ccc(C)cc2)cc1)C(=O)O)[C@@](O)(CC(=O)O)C(=O)O [Compound 59] | > 1000 nM | 3 nM
2 | CC(C)CCOc1ccc(C[C@H](NC(=O)[C@@H](/C=C/CCCCCCC(=O)CCCCCCF)[C@@](O)(CC(=O)O)C(=O)O)C(=O)O)cc1 [Compound 98] | > 1000 nM | 21 nM
3 | CCCCCCCC(=O)CCCCCC/C=C/[C@H](C(=O)N[C@@H](Cc1ccc(-c2cccc(C)c2)cc1)C(=O)O)[C@@](O)(CC(=O)O)C(=O)O [Compound 61] | > 1000 nM | 6 nM
4 | CCCCCCCC(=O)CCCCCC/C=C/[C@H](C(=O)N[C@@H](Cc1ccc(-c2ccc(C#N)cc2)cc1)C(=O)O)[C@@](O)(CC(=O)O)C(=O)O [Compound 71] | > 1000 nM | 4 nM
5 | CCCCCCCCCC(=O)CCCC/C=C/[C@H](C(=O)N[C@@H](Cc1ccc(-c2ccccc2)cc1)C(=O)O)[C@@](O)(CC(=O)O)C(=O)O [Compound 100] | > 1000 nM | 92 nM
6 | CCCCCCCC(=O)CCCCCC/C=C/[C@H](C(=O)N[C@@H](Cc1ccc(OCCCN(C)C)cc1)C(=O)O)[C@@](O)(CC(=O)O)C(=O)O [Compound 84] | > 1000 nM | 43 nM
7 | CCCCCCCC(=O)CCCCCC/C=C/[C@H](C(=O)N[C@@H](Cc1ccc(-c2cccc(C(F)(F)F)c2)cc1)C(=O)O)[C@@](O)(CC(=O)O)C(=O)O [Compound 63] | > 1000 nM | 10 nM
8 | CCCCCCCC(=O)CCCCCC/C=C/[C@H](C(=O)N[C@@H](Cc1ccc(Oc2ccc(OC)cc2)cc1)C(=O)O)[C@@](O)(CC(=O)O)C(=O)O [Compound 54] | > 1000 nM | 2 nM
9 | CCCCCCCC(=O)CCCCCC/C=C/[C@H](C(=O)N[C@@H](Cc1ccc(Oc2ccc(C(F)(F)F)cc2)cc1)C(=O)O)[C@@](O)(CC(=O)O)C(=O)O [Compound 55] | > 1000 nM | 19 nM
10 | CCCCCCCC(=O)CCCCCC/C=C/[C@H](C(=O)N[C@@H](Cc1ccc(Oc2cccc(C(F)(F)F)c2)cc1)C(=O)O)[C@@](O)(CC(=O)O)C(=O)O [Compound 57] | > 1000 nM | 11 nM
11 | CCC#CCOc1ccc(C[C@H](NC(=O)[C@@H](/C=C/CCCCCCC(=O)CCCCCCC)[C@@](O)(CC(=O)O)C(=O)O)C(=O)O)cc1 [Compound 109] | > 1000 nM | 2 nM
12 | CCCCCCCC(=O)CCCCCC/C=C/[C@H](C(=O)N[C@@H](Cc1ccc(Oc2ccc(Cl)cc2)cc1)C(=O)O)[C@@](O)(CC(=O)O)C(=O)O [Compound 24] | > 1000 nM | 11 nM
13 | C=CCCCCCC(=O)CCCCCC/C=C/[C@H](C(=O)N[C@@H](Cc1ccc(OCCC(C)C)cc1)C(=O)O)[C@@](O)(CC(=O)O)C(=O)O [Compound 48] | > 1000 nM | 3 nM
14 | CCCCCCCC(=O)CCCCCC/C=C/[C@H](C(=O)NC(Cc1ccc(C(F)(F)F)cc1)C(=O)O)[C@@](O)(CC(=O)O)C(=O)O (some centres unmarked) [Compound 32] | > 1000 nM | 68 nM
15 | CCCCCCCC(=O)CCCCCC/C=C/[C@H](C(=O)N[C@@H](Cc1ccc(-c2ccc(N(C)C)cc2)cc1)C(=O)O)[C@@](O)(CC(=O)O)C(=O)O [Compound 68] | > 1000 nM | 2 nM
16 | CCCCCCCC(=O)CCCCCC/C=C/[C@H](C(=O)NC(Cc1ccc(OCCC)cc1)C(=O)O)[C@@](O)(CC(=O)O)C(=O)O (some centres unmarked) [Compound 41] | > 1000 nM | 2 nM
17 | CCCCCCCC(=O)CCCCCC/C=C/[C@H](C(=O)N[C@@H](Cc1ccc(Oc2ccc(C#N)cc2)cc1)C(=O)O)[C@@](O)(CC(=O)O)C(=O)O [Compound 70] | > 1000 nM | 11 nM
18 | CCCCCCCC(=O)CCCCCC/C=C/[C@H](C(=O)N[C@@H](Cc1ccc(NC(C)=O)cc1)C(=O)O)[C@@](O)(CC(=O)O)C(=O)O [Compound 93] | > 1000 nM | 12 nM
19 | CCCCCCCC(=O)CCCCCC/C=C/[C@H](C(=O)N[C@@H](Cc1ccc(Oc2ccc(N(C)C)cc2)cc1)C(=O)O)[C@@](O)(CC(=O)O)C(=O)O [Compound 67] | > 1000 nM | 4 nM
20 | CCCCCCCC(=O)CCCCCC/C=C/[C@H](C(=O)N[C@@H](Cc1cccnc1)C(=O)O)[C@@](O)(CC(=O)O)C(=O)O [Compound 97] | > 1000 nM | 302 nM

Row | Structure (SMILES) | CC50 (in vitro) | IC50 [1]
21 | CCCCCCCC(=O)CCCCCC/C=C/[C@H](C(=O)NC(Cc1ccc(OCCCC)cc1)C(=O)O)[C@@](O)(CC(=O)O)C(=O)O (some centres unmarked) [Compound 40] | > 1000 nM | 1 nM
22 | CCCCCCCC(=O)CCCCCC/C=C/[C@H](C(=O)N[C@@H](Cc1ccc(-c2ccc(SC)cc2)cc1)C(=O)O)[C@@](O)(CC(=O)O)C(=O)O [Compound 77] | > 1000 nM | 7 nM
23 | CCCCCCCC(=O)CCCCCC/C=C/[C@H](C(=O)N[C@@H](Cc1ccc(OCc2cccnc2)cc1)C(=O)O)[C@@](O)(CC(=O)O)C(=O)O [Compound 85] | > 1000 nM | 1 nM
24 | CCCCCCC(=O)CCCCCC/C=C/[C@H](C(=O)N[C@@H](Cc1ccc(OCCC(C)C)cc1)C(=O)O)[C@](O)(CC(=O)O)C(=O)O [Compound 51] | > 1000 nM | 17 nM
25 | CCCCCCCC(=O)CCCCCC/C=C/[C@H](C(=O)N[C@@H](Cc1ccc(-c2cccc(F)c2)cc1)C(=O)O)[C@@](O)(CC(=O)O)C(=O)O [Compound 66] | > 1000 nM | 6 nM
26 | CCCCCCCC(=O)CCCCCC/C=C/[C@H](C(=O)N[C@@H](Cc1ccc(-c2cccc(Cl)c2)cc1)C(=O)O)[C@@](O)(CC(=O)O)C(=O)O [Compound 38] | > 1000 nM | 24 nM
27 | CCCCCCCC(=O)CCCCCC/C=C/[C@H](C(=O)N[C@@H](Cc1ccc(-c2ccc(F)cc2F)cc1)C(=O)O)[C@@](O)(CC(=O)O)C(=O)O [Compound 30] | > 1000 nM | 8 nM
28 | CCCCCCCC(=O)CCCCCC/C=C/[C@H](C(=O)N[C@@H](Cc1ccc(OC2CCN(C)CC2)cc1)C(=O)O)[C@@](O)(CC(=O)O)C(=O)O [Compound 83] | > 1000 nM | 108 nM
29 | CCCCCCCC(=O)CCCCCC/C=C/[C@H](C(=O)N[C@@H](Cc1ccc(-c2ccc(S(=O)(=O)N(C)C)cc2)cc1)C(=O)O)[C@@](O)(CC(=O)O)C(=O)O [Compound 74] | > 1000 nM | 135 nM
30 | CC#CCCOc1ccc(C[C@H](NC(=O)[C@@H](/C=C/CCCCCCC(=O)CCCCCCC)[C@@](O)(CC(=O)O)C(=O)O)C(=O)O)cc1 [Compound 107] | > 1000 nM | 1 nM
31 | CCCCCCCC(=O)CCCCCC/C=C/[C@H](C(=O)N[C@@H](Cc1ccc(-c2ccc(OC)cc2)cc1)C(=O)O)[C@@](O)(CC(=O)O)C(=O)O [Compound 58] | > 1000 nM | 4 nM
32 | CCCCCCCC(=O)CCCCCC/C=C/[C@H](C(=O)N[C@@H](Cc1ccc(-c2c(C)noc2C)cc1)C(=O)O)[C@@](O)(CC(=O)O)C(=O)O [Compound 79] | > 1000 nM | 104 nM
33 | CCCCCCCC(=O)CCCCCC/C=C/[C@H](C(=O)N[C@@H](Cc1ccc(-c2cncnc2)cc1)C(=O)O)[C@@](O)(CC(=O)O)C(=O)O [Compound 76] | > 1000 nM | 13 nM
34 | CCCCCCCC(=O)CCCCCC/C=C/[C@H](C(=O)NC(Cc1ccc([N+](=O)[O-])cc1)C(=O)O)[C@@](O)(CC(=O)O)C(=O)O (some centres unmarked) [Compound 35] | > 1000 nM | 80 nM
35 | CCCCCCCC(=O)CCCCCC/C=C/[C@H](C(=O)N[C@@H](Cc1ccc(CN)cc1)C(=O)O)[C@@](O)(CC(=O)O)C(=O)O [Compound 94] | > 1000 nM | 280 nM
36 | CCCCCCCC(=O)CCCCCC/C=C/[C@H](C(=O)NC(Cc1ccc(C#N)cc1)C(=O)O)[C@@](O)(CC(=O)O)C(=O)O (some centres unmarked) [Compound 33] | > 1000 nM | 12 nM
37 | CC(C)CCOc1ccc(C[C@H](NC(=O)[C@@H](/C=C/CCCCCCC(=O)CCc2ccccc2)[C@@](O)(CC(=O)O)C(=O)O)C(=O)O)cc1 [Compound 47] | > 1000 nM | 250 nM
38 | CCCCCCCC(=O)CCCCCC/C=C/[C@H](C(=O)N[C@@H](Cc1cccs1)C(=O)O)[C@@](O)(CC(=O)O)C(=O)O [Compound 36] | > 1000 nM | 500 nM
39 | CCCCCCCC#CCOc1ccc(C[C@H](NC(=O)[C@@H](/C=C/CCCCCCC(=O)CCCCCCC)[C@@](O)(CC(=O)O)C(=O)O)C(=O)O)cc1 [Compound 110] | > 1000 nM | 5 nM
40 | CCCCCCCC(=O)CCCCCC/C=C/[C@H](C(=O)N[C@@H](Cc1ccc(OCC#CC#CC(C)(C)C)cc1)C(=O)O)[C@@](O)(CC(=O)O)C(=O)O [Compound 111] | > 1000 nM | 6 nM
